In the NIST ThermoML archive (doi:10.1016/j.fluid.2018.08.017):

Experiment: wn = mass fraction of the nth substance listed
Details: 101 kPa, Liquid; for speed of sound: Single path-length method; for mass density: Vibrating tube method

CN1CCCC1=O [N-methylpyrrolidone] + CCCCn1cc[n+](C)c1.F[B-](F)(F)F
Details	mass density [kg/m3]	speed of sound [m/s]	viscosity [mPa·s]
293.15 K, w2 = 0	1034.1	1565.7	1.786
293.15 K, w2 = 0.0986	1052.7	1579.2	2.568
293.15 K, w2 = 0.2498	1077.9	1582	3.938
293.15 K, w2 = 0.4971	1119.5	1585.5	9.374
293.15 K, w2 = 0.7413	1160.6	1580.1	27.49
298.15 K, w2 = 0	1029.7	1546.1	1.693
298.15 K, w2 = 0.0986	1048.4	1560.5	2.33
298.15 K, w2 = 0.2498	1073.7	1564.5	3.528
298.15 K, w2 = 0.4971	1115.5	1570.1	8.144
298.15 K, w2 = 0.7413	1156.8	1566.6	22.73
303.15 K, w2 = 0	1025.2	1526.7	1.564
303.15 K, w2 = 0.0986	1044	1541.8	2.129
303.15 K, w2 = 0.2498	1069.5	1546.8	3.18
303.15 K, w2 = 0.4971	1111.5	1554.5	7.116
303.15 K, w2 = 0.7413	1153	1552.8	19.07
308.15 K, w2 = 0	1020.8	1507.5	1.448
308.15 K, w2 = 0.0986	1039.7	1523.2	1.953
308.15 K, w2 = 0.2498	1065.4	1529.4	2.884
308.15 K, w2 = 0.4971	1107.5	1539	6.257
308.15 K, w2 = 0.7413	1149.2	1539.2	16.26
313.15 K, w2 = 0	1016.3	1488.3	1.346
313.15 K, w2 = 0.0986	1035.4	1504.8	1.798
313.15 K, w2 = 0.2498	1061.2	1512	2.627
313.15 K, w2 = 0.4971	1103.5	1523.7	5.544
313.15 K, w2 = 0.7413	1145.4	1525.6	13.88
318.15 K, w2 = 0	1011.9	1469.2	–
318.15 K, w2 = 0.0986	1031	1486.6	–
318.15 K, w2 = 0.2498	–	1494.8	–
318.15 K, w2 = 0.4971	–	1508.4	–
318.15 K, w2 = 0.7413	–	1512.2	–
